Test results reported in patent US20060205826A1, “Method of using carotenoids in the prevention of cognitive decline and for other neuroprotection functions” (priority 2005, published 2006).

How the values were obtained:
[1] = test system: MDA, a lipid peroxidation product; test: MDA concentration by liquid chromatography in serum, eye and hippocampus of diabetic mice; type: in vivo
Method: (§1) Male albino mice were used throughout the study, housed in a environmentally regulated room on a dark-light cycle of 12 hours with free access to food and water. Principles of laboratory animal care (NIH publication no. 85-23, revised 1985) were followed, as well as specific Spanish regulations. Animals were made diabetic with a single subcutaneous injection of 200 mg alloxan/kg body weight (66 mg/ml) in 0.1 M citrate buffer, pH 4.5, at day 0 of the experiment. Control mice were injected with the same volume of vehicle also at day 0 of the experiment.
Mice were identified as diabetic on the basis of blood glucose levels (higher than 16 mM at least 4 days after alloxan treatment). Animals were divided into subgroups as required by the experiment (control, control+lutein, diabetic, diabetic+lutein, diabetic+insulin, diabetic+insulin+lutein). […] Insulin treated animals were injected daily with 500 mU/g body weight since day 4 until the end of the experiment. Mice were killed by cervical dislocation on day 14, and hippocampus and retina were removed and homogenized in pre-chilled 0.2 M potassium phosphate buffer, pH 7.0. These homogenates were used to assay protein, GPx activity and MDA and GSH concentrations. Samples were kept frozen (−80° C.) until biochemical assays were performed. Blood was taken from the tail vein daily to assay blood glucose levels. Glycated hemoglobin was determined in blood samples obtained by heart puncture immediately before killing the animals.
MDA, a lipid peroxidation product, concentration was measured by liquid chromatography according to a modification of the method of Richard et al. (1992) as previously described (Romero et al., 1998). Briefly, 0.1 ml of sample (or standard solutions prepared daily from 1,1,3,3-tetramethoxypropane) and 0.75 ml of working solution (thiobarbituric acid 0.37% and perchloric acid 6.4%; 2/1, v/v) were mixed and heated to 95° C. for 1 h. After cooling (10 min in ice water bath), the flocculent precipitate was removed by centrifugation at 3,200×g for 10 min. The supernatant was neutralized and filtered (0.22 μm) prior to injection on an ODS column 5 μm column (250×4.6 mm). Mobile phase consisted in 50 mM phosphate buffer (pH 6.0): methanol (58:42, v/v). Isocratic separation was performed with 1.0 ml/min flow (HPLC System 325, Kontron) and detection at 532 nm (UV/VIS HPLC Detector 332, Kontron). Calibration curves were run daily.

[2] = test system: GPx activity; test: GPx activity in eye and hippocampus homogenate of diabetic mice; type: in vivo
Method: Male albino mice were used throughout the study, housed in a environmentally regulated room on a dark-light cycle of 12 hours with free access to food and water. Principles of laboratory animal care (NIH publication no. 85-23, revised 1985) were followed, as well as specific Spanish regulations. Animals were made diabetic with a single subcutaneous injection of 200 mg alloxan/kg body weight (66 mg/ml) in 0.1 M citrate buffer, pH 4.5, at day 0 of the experiment. Control mice were injected with the same volume of vehicle also at day 0 of the experiment. Mice were identified as diabetic on the basis of blood glucose levels (higher than 16 mM at least 4 days after alloxan treatment). Animals were divided into subgroups as required by the experiment (control, control+lutein, diabetic, diabetic+lutein, diabetic+insulin, diabetic+insulin+lutein). […] Insulin treated animals were injected daily with 500 mU/g body weight since day 4 until the end of the experiment. Mice were killed by cervical dislocation on day 14, and hippocampus and retina were removed and homogenized in pre-chilled 0.2 M potassium phosphate buffer, pH 7.0. These homogenates were used to assay protein, GPx activity and MDA and GSH concentrations. Samples were kept frozen (−80° C.) until biochemical assays were performed. Blood was taken from the tail vein daily to assay blood glucose levels. Glycated hemoglobin was determined in blood samples obtained by heart puncture immediately before killing the animals. GPx activity was assayed as reported by Lawrence et al. (1978) towards hydrogen peroxide. The disappearance of NADPH was followed spectrophotometrically at 340 nm. The reaction mixture consisted of 240 mU/ml of glutathione disulfide reductase, 1 mM GSH, 0.15 mM NADPH in 0.1 M potassium phosphate buffer, pH 7.0, containing 1 mM EDTA and 1 mM sodium azide; 50 μl sample were added to this mixture and allowed to equilibrate at 37° C. for 3 min. reaction was started by the addition of 1.5 mM hydrogen peroxide to adjust the final volume of the assay mixture to 1 ml.

[3] = test system: GSH; test: GSH content in hippocampus homogenate of diabetic mice; type: in vivo; settings: lutein 0.2 mg/kg p.o. or insulin 500 mU/g s.c. on days 4-13
Method: as §1
Mice were identified as diabetic on the basis of blood glucose levels (higher than 16 mM at least 4 days after alloxan treatment). Animals were divided into subgroups as required by the experiment (control, control+lutein, diabetic, diabetic+lutein, diabetic+insulin, diabetic+insulin+lutein). Lutein was administered daily at a dose of 0.2 mg/kg p.o since day 4 after alloxan or citrate buffer injection until the end of the experiment. […] Glycated hemoglobin was determined in blood samples obtained by heart puncture immediately before killing the animals.
The GSH content of eye homogenate was quatitated by the method of Reed et al. (Reed et al., 1980). […] These products are quickly separated by HPLC which allows the quantification of nanomolars levels of GSH.

[4] = test system: GPx activity; settings: diabetic animals; Miranda et al., 2004; cited from earlier work
[5] = test system: alloxan diabetic mice; settings: diabetic animals; Miranda et al., 2004; cited from earlier work
[6] = lutein 100 mg/kg p.o. or insulin 500 mU/g body weight s.c. on days 4-13

For `CC1=C[C@H](O)CC(C)(C)[C@H]1/C=C/C(C)=C/C=C/C(C)=C/C=C/C=C(C)/C=C/C=C(C)/C=C/C1=C(C)C[C@@H](O)CC1(C)C` [Lutein], the “MDA levels in hippocampus” value ([1]; lutein 0.2 mg/kg p.o. or insulin 500 mU/g body weight s.c. on days 4-13) was “restored”, the “MDA levels in hippocampus” value ([1]; lutein 0.2 mg/kg p.o. or insulin 500 mU/g body weight s.c. on days 4-13, listed as lutein) was “able to prevent this effect” and the “MDA levels in ocular tissue” value [1, 6] was “restored”. For the same compound, the “MDA levels in serum” value [1, 6] was “restored”, the “MDA levels in ocular tissue” value ([1]; lutein 100 mg/kg p.o. or insulin 500 mU/g body weight s.c. on days 4-13, listed as lutein) was “able to prevent this effect” and the “retinal GPx activity” value ([2]; eye homogenate without lens, lutein 100 mg/kg p.o. or insulin 500 mU/g s.c. on days 4-13) was “protected”. For the same compound, the “GPx activity in hippocampus homogenate” value ([2]; lutein 0.2 mg/kg p.o. or insulin 500 mU/g s.c. on days 4-13) was “restored”, the “GSH content in hippocampus homogenate” value [3] was “restored” and the “glutathione peroxidase activity of the retinas” value [4] was “restored”. For the same compound, the “b-wave amplitude of the electroretinogram” value [5] was “restored”.
